Experimental data from paper PMC6287599, “2,6-Bis(2-Benzimidazolyl)Pyridine (BBP) Is a Potent and Selective Inhibitor of Small Conductance Calcium-Activated Potassium (SK) Channels” (Frontiers in Pharmacology, 2018).
“Also recorded” adds a separate entry of the source.

Molecular target: T1, Kv4.3/KCHIP2 (Homo sapiens, UniProt Q9UK17)
T1 sequence (Q9UK17 1-655): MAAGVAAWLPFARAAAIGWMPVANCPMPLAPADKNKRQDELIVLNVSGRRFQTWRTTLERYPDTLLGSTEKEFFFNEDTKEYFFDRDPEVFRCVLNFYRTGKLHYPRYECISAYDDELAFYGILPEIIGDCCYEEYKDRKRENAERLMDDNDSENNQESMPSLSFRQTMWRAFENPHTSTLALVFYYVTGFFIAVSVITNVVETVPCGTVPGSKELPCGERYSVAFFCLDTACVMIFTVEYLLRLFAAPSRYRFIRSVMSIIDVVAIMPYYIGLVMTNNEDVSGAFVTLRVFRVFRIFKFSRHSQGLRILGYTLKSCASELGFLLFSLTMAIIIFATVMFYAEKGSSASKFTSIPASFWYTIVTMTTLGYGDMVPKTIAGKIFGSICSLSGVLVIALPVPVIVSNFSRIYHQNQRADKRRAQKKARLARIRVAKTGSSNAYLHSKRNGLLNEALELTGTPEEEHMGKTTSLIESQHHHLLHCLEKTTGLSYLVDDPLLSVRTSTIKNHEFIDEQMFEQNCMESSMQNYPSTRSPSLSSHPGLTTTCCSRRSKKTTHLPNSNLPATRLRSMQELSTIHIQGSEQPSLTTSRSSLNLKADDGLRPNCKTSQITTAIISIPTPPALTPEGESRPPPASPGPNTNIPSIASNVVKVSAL
T1 sequence (Q9NS61 1-270 partner): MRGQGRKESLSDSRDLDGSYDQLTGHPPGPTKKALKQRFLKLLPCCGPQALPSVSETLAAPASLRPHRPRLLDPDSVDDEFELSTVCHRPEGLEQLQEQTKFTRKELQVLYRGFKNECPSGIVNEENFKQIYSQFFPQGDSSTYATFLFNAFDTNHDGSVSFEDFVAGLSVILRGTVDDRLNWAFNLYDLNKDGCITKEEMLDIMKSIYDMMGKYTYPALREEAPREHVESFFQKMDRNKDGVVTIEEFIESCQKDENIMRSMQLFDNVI
Assay: Two-electrode voltage clamp in Xenopus laevis oocytes, Kv4.3/KCHIP2
Format: cell-based
Settings: BBP 10 μM, TEVC, n = 5
Method: cRNA was prepared from linearized plasmids using the mMESSAGE mMACHINE T7 kit (Ambion, USA) and quantified by UV spectroscopy (NanoDrop, Thermo Scientific, Wilmington, USA). Xenopus laevis oocytes were acquired from EcoCyte Bioscience (Castrop-Rauxel, Germany). Oocytes were injected with 50 nL cRNA and currents were recorded after 2 days of incubation at 19°C. Currents were recorded at a sampling rate of 10 kHz using a TEVC amplifier (Dagan CA-1B; IL, USA), and borosilicate glass recording electrodes (Module Ohm, Herlev, Denmark), made with a DMZ Universal Puller (Zeitz Instruments, Martinsried, Germany) with a resistance of 0.5–1 MΩ when filled with 2 M KCl. Oocytes were superfused with Kulori (pH 7.4) solution containing NaCl 90 mM, KCl 4 mM, MgCl2 1 mM, CaCl2 1 mM, 4-(2-hydroxyethyl)-1-piperazineethanesulfonic acid 5 mM, and currents were elicited with the voltage protocols previously indicated (Skarsfeldt et al., [2016]), from a holding potential of −80 mV. […]
To assess the effect of BBP on other calcium-activated potassium channels (hBK, hSK3 WT, rSK3 H491N, and hIK), each individual current was first normalized to its cell size using membrane's capacitance (pA/pF) before statistical analysis. […] Statistical significance between saline and the effect of both BBP and the corresponding reference compound was determined for each channel using one-way ANOVA analysis. […]

c1cc(-c2nc3ccccc3[nH]2)nc(-c2nc3ccccc3[nH]2)c1 [BBP, 2,6-Bis(2-benzimidazolyl)pyridine]
Effect on Kv4.3/KCHIP2 current: did not have any effect; also recorded: did not significantly affect
